According to patent US10766865B2, “PKM2 modulators and methods for their use” (TOLERO PHARMACEUTICALS, INC., priority 2012, dated 2020):

The compounds below were run against PKM2 (Homo sapiens, UniProt P14618) (assay: PKM2 Biochemical Assay). Conditions: not given.
Sequence of PKM2 (P14618 whole entry): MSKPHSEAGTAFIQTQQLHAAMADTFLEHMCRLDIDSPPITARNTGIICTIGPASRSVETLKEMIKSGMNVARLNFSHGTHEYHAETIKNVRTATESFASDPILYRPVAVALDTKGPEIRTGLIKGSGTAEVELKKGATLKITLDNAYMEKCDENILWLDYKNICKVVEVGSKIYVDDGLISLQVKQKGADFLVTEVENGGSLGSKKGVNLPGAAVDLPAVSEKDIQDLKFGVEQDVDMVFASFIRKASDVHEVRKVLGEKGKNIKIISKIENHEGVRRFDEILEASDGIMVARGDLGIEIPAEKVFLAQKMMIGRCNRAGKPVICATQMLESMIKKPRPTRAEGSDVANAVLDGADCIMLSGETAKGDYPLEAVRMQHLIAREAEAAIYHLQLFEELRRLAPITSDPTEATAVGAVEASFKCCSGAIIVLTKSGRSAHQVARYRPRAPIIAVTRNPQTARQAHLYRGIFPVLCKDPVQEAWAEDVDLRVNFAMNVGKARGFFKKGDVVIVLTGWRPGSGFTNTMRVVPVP

AC50 [µM]	SMILES
1.48	CC(c1ccccc1)N(CC1CCC1)C(=O)c1cc(Br)n[nH]1 (stereo not shown) [Example 4, 3-bromo-N-(cyclobutylmethyl)-N-(1-phenylethyl)-1H-pyrazole-5-carboxamide]
4.64	COCCCN(Cc1ccccc1Cl)C(=O)c1cc(C(F)(F)F)n[nH]1 [Example 29]

Same assay, conditions: % maximum response in a biochemical assay as compared with Fructose 1,6-bisphosphate

Max. Resp. [%]	SMILES
87	O=C(c1cc(C(F)(F)F)n[nH]1)N(CCC1CCS(=O)(=O)C1)Cc1ccccc1F (stereo not shown) [Example 63]
98	O=C(c1cc(Br)n[nH]1)N(CCC1CCS(=O)(=O)CC1)Cc1ccccc1F [Example 83]
81	O=C(c1cc(C(F)(F)F)n[nH]1)N(CCC1CCOC1)Cc1c(Cl)cccc1Cl (stereo not shown) [Example 33]
85	O=C(c1cc(C(F)(F)F)n[nH]1)N(Cc1ccccc1Cl)CC1CCCN1 (stereo not shown) [Example 232, N-(2-chlorobenzyl)-3-(trifluoromethyl)-N-((pyrrolidin-2-yl)methyl)-1H-pyrazole-5-carboxamide]
100	CC1CCCN(CCN(Cc2ccccc2F)C(=O)c2cc(C(F)(F)F)n[nH]2)C1 (stereo not shown) [Example 201, N-(2-fluorobenzyl)-3-(trifluoromethyl)-N-(2-(3-methylpiperidin-1-yl)ethyl)-1H-pyrazole-5-carboxamide]
22	O=C(c1cc(C(F)(F)F)n[nH]1)N(Cc1ccccc1Cl)CC1CCS(=O)(=O)CC1 [Example 72]
100	CC1CCCCN1CCN(Cc1ccccc1F)C(=O)c1cc(C(F)(F)F)n[nH]1 (stereo not shown) [Example 203, N-(2-fluorobenzyl)-3-(trifluoromethyl)-N-(2-(2-methylpiperidin-1-yl)ethyl)-1H-pyrazole-5-carboxamide]
70	O=C(c1cc(C(F)(F)F)n[nH]1)N(Cc1ccccc1F)CC1COC1 [Example 20]
42	CN1CCN(CCN(Cc2ccccc2F)C(=O)c2cc(C(F)(F)F)n[nH]2)CC1 [Example 103]
95	O=C(c1cc(C(F)(F)F)n[nH]1)N(CCC1CCS(=O)(=O)C1)Cc1cccc(F)c1 (stereo not shown) [Example 67]
100	CS(=O)(=O)N1CCCC(CCN(Cc2ccccc2Cl)C(=O)c2cc(C(F)(F)F)n[nH]2)C1 (stereo not shown) [Example 228, N-(2-chlorobenzyl)-N-(2-(1-(methylsulfonyl)piperidin-3-yl)ethyl)-3-(trifluoromethyl)-1H-pyrazole-5-carboxamide]
79	O=C(c1cc(C(F)(F)F)n[nH]1)N(CCC1CCSCC1)Cc1ccccc1Cl [Example 73, N-(2-chlorobenzyl)-N-(2-(tetrahydro-2H-thiopyran-4-yl)ethyl)-3-(trifluoromethyl)-1H-pyrazole-5-carboxamide]
74	O=C(c1cc(C(F)(F)F)n[nH]1)N(CCC1CCS(=O)(=O)C1)Cc1cc(F)cc(F)c1 (stereo not shown) [Example 69]
71	O=C(c1cc(C(F)(F)F)n[nH]1)N(CCC1CCS(=O)(=O)C1)Cc1c(Cl)cccc1Cl (stereo not shown) [Example 64]
100	O=C(c1cc(C(F)(F)F)n[nH]1)N(CCC1CC1)Cc1ccc(O)cc1F [Example 140, N-(2-fluoro-4-hydroxybenzyl)-N-(2-cyclopropylethyl)-3-(trifluoromethyl)-1H-pyrazole-5-carboxamide]
99	O=C(c1cc(C(F)(F)F)n[nH]1)N(CCC1CCOC1)Cc1ccccc1F (stereo not shown) [Example 26]
100	O=C(c1cc(C(F)(F)F)n[nH]1)N(CCN1CCCC(O)C1)Cc1ccccc1Cl (stereo not shown) [Example 220, N-(2-chlorobenzyl)-3-(trifluoromethyl)-N-(2-(3-hydroxypiperidin-1-yl)ethyl)-1H-pyrazole-5-carboxamide]
100	CS(=O)(=O)N1CCC(CCN(Cc2ccccc2F)C(=O)c2cc(C(F)(F)F)n[nH]2)CC1 [Example 99]
47	O=C(c1cc(C(F)(F)F)n[nH]1)N(Cc1ccccc1Cl)CC1COC1 [Example 27]
32	O=C(c1cc(C(F)(F)F)n[nH]1)N(CCC1CCCCO1)Cc1ccccc1Cl (stereo not shown) [Example 44]
100	COCCN(Cc1ccc(O)cc1F)C(=O)c1cc(C(F)(F)F)n[nH]1 [Example 142, N-(2-fluoro-4-hydroxybenzyl)-3-(trifluoromethyl)-N-(2-methoxyethyl)-1H-pyrazole-5-carboxamide]
100	Nc1ccc(CN(CC2CCC2)C(=O)c2cc(C(F)(F)F)n[nH]2)c(Cl)c1 [Example 134, N-(4-amino-2-chlorobenzyl)-N-(cyclobutylmethyl)-3-(trifluoromethyl)-1H-pyrazole-5-carboxamide]
100	O=C(c1cc(C(F)(F)F)n[nH]1)N(CCC1CCS(=O)(=O)CC1)Cc1c(F)cccc1F [Example 85]
52	O=C(c1cc(C(F)(F)F)n[nH]1)N(Cc1ccccc1F)CC1CCOCC1 [Example 45]
100	O=C(c1cc(C(F)(F)F)n[nH]1)N(Cc1cccc(Cl)c1O)CC1CCC1 [Example 141, N-(3-chloro-2-hydroxybenzyl)-N-(cyclobutylmethyl)-3-(trifluoromethyl)-1H-pyrazole-5-carboxamide]
70	O=C(c1cc(C(F)(F)F)n[nH]1)N(CCO)Cc1ccc(O)cc1F [Example 137, N-(2-fluoro-4-hydroxybenzyl)-3-(trifluoromethyl)-N-(2-hydroxyethyl)-1H-pyrazole-5-carboxamide]
81	O=C(c1cc(C(F)(F)F)n[nH]1)N(Cc1cccc2c1CCN2)CC1CCC1 [Example 14, N-(cyclobutylmethyl)-N-(indolin-4-ylmethyl)-3-(trifluoromethyl)-1H-pyrazole-5-carboxamide]
100	Nc1cccc(Cl)c1CN(CCN1CC[C@H](F)C1)C(=O)c1cc(C(F)(F)F)n[nH]1 [Example 241, N-(2-amino-6-chlorobenzyl)-3-(trifluoromethyl)-N-(2-((S)-3-fluoropyrrolidin-1-yl)ethyl)-1H-pyrazole-5-carboxamide]

More lines, now with the values behind:

SMILES	Max. Resp. [%]
O=C(c1cc(Cl)n[nH]1)N(Cc1cccc2[nH]cnc12)CC1CCC1 [Example 119, N-((1H-benzo[d]imidazol-4-yl)methyl)-3-chloro-N-(cyclobutylmethyl)-1H-pyrazole-5-carboxamide]	100
COC1CCN(CCN(Cc2c(N)cccc2Cl)C(=O)c2cc(C(F)(F)F)n[nH]2)C1 (stereo not shown) [Example 235, N-(2-amino-6-chlorobenzyl)-3-(trifluoromethyl)-N-(2-(3-methoxypyrrolidin-1-yl)ethyl)-1H-pyrazole-5-carboxamide]	100
CC(c1ccccc1)N(CC1CCC1)C(=O)c1cc(Br)n[nH]1 (stereo not shown) [Example 4, 3-bromo-N-(cyclobutylmethyl)-N-(1-phenylethyl)-1H-pyrazole-5-carboxamide]	52
CC1CCCCN1CCN(Cc1cc(N)ccc1Cl)C(=O)c1cc(C(F)(F)F)n[nH]1 (stereo not shown) [Example 202, N-(5-amino-2-chlorobenzyl)-3-(trifluoromethyl)-N-(2-(2-methylpiperidin-1-yl)ethyl)-1H-pyrazole-5-carboxamide]	100
CN(C)Cc1c[nH]c2cccc(CN(CC3CCC3)C(=O)c3cc(Cl)n[nH]3)c12 [Example 118, 3-CHLORO-N-(CYCLOBUTYLMETHYL)-N-((3-((DIMETHYLAMINO)METHYL)-1H-INDOL-4-YL)METHYL)-1H-PYRAZOLE-5-CARBOXAMIDE]	100
CCN(CC)CCN(Cc1ccccc1F)C(=O)c1cc(C(F)(F)F)n[nH]1 [Example 148, N-(2-fluorobenzyl)-N-(2-(diethylamino)ethyl)-3-(trifluoromethyl)-1H-pyrazole-5-carboxamide]	100
CO[C@H]1CC[C@H](N(Cc2c(F)cccc2F)C(=O)c2cc(C(F)(F)F)n[nH]2)CC1 [Example 49]	122
COc1ccc(N)cc1CN(CCN1CCCCCC1)C(=O)c1cc(C(F)(F)F)n[nH]1 [Example 215, N-(5-amino-2-methoxybenzyl)-N-(2-(azepan-1-yl)ethyl)-3-(trifluoromethyl)-1H-pyrazole-5-carboxamide]	100
O=C(c1cc(C(F)(F)F)n[nH]1)N(Cc1ccncc1Cl)CC1CCC1 [Example 128, N-((3-chloropyridin-4-yl)methyl)-N-(cyclobutylmethyl)-3-(trifluoromethyl)-1H-pyrazole-5-carboxamide]	75
O=C(c1cc(C(F)(F)F)n[nH]1)N(Cc1ccccc1F)c1ncco1 [Example 25]	35
COc1c(N)cccc1CN(CCN1CCCCCC1)C(=O)c1cc(C(F)(F)F)n[nH]1 [Example 217, N-(3-amino-2-methoxybenzyl)-N-(2-(azepan-1-yl)ethyl)-3-(trifluoromethyl)-1H-pyrazole-5-carboxamide]	100
COCCCN(Cc1ccccc1Cl)C(=O)c1cc(C(F)(F)F)n[nH]1 [Example 29]	87
CCCC(C)N(Cc1ccccc1)C(=O)c1cc(C(F)(F)F)n[nH]1 (stereo not shown) [Example 16]	22
CCOCCN(Cc1c(Cl)cccc1Cl)C(=O)c1cc(C(F)(F)F)n[nH]1 [Example 42]	76
O=C(c1cc(Br)n[nH]1)N(CCC1CCSCC1)Cc1ccccc1F [Example 82]	74
O=C(c1cc(C(F)(F)F)n[nH]1)N(CCN1CCCC1)Cc1ccc(Cl)cc1Cl [Example 165, N-(2,4-dichlorobenzyl)-3-(trifluoromethyl)-N-(2-(pyrrolidin-1-yl)ethyl)-1H-pyrazole-5-carboxamide]	50
CCN(CC)CCN(Cc1cccc(Cl)c1Cl)C(=O)c1cc(C(F)(F)F)n[nH]1 [Example 167, N-(2,3-dichlorobenzyl)-N-(2-(diethylamino)ethyl)-3-(trifluoromethyl)-1H-pyrazole-5-carboxamide]	100
CCN(CC)CCN(Cc1cccc(F)c1Cl)C(=O)c1cc(C(F)(F)F)n[nH]1 [Example 182, N-(2-chloro-3-fluorobenzyl)-N-(2-(diethylamino)ethyl)-3-(trifluoromethyl)-1H-pyrazole-5-carboxamide]	100
O=C(c1cc(Br)n[nH]1)N(Cc1cccc2[nH]cnc12)CC1CCC1 [Example 120, N-((1H-benzo[d]imidazol-4-yl)methyl)-3-bromo-N-(cyclobutylmethyl)-1H-pyrazole-5-carboxamide]	100
CC(C)(C)CN(Cc1cccc2[nH]ccc12)C(=O)c1cc(C(F)(F)F)n[nH]1 [Example 13]	33

Same assay, conditions: read-out: PKM2 AC50; 2 nM PKM2, 75 μM ADP, 15 μM PEP, Kinase Glo

AC50 [µM]	SMILES
1.33	O=C(c1cc(Br)n[nH]1)N(Cc1cccc2[nH]cnc12)CC1CCC1 [Example 120, N-((1H-benzo[d]imidazol-4-yl)methyl)-3-bromo-N-(cyclobutylmethyl)-1H-pyrazole-5-carboxamide]
1.7	O=C(c1cc(C(F)(F)F)n[nH]1)N(Cc1cccc2c1CCN2)CC1CCC1 [Example 14, N-(cyclobutylmethyl)-N-(indolin-4-ylmethyl)-3-(trifluoromethyl)-1H-pyrazole-5-carboxamide]
